# From patent publication US20240018153A1, “BENZENESULFONAMIDE DERIVATIVES AND USES THEREOF” (2692372 ONTARIO, INC., priority 2020, published 2024)
# How the values were obtained:
# BTK [1] = molecular target: T1, BTK (Homo sapiens (Human), UniProt Q06187); assay: HTRF KinEASE-TK kinase assay, BTK; assay type: biochemical; conditions: 3 h preincubation; for remaining activity at 1 µM: 1 μM compound, read-out: % BTK Remaining activity vs DMSO (1 μM, 3 h); for remaining activity at 10 µM: 10 μM compound, read-out: % BTK Remaining activity vs DMSO (10 μM, 3 h)
# T1 sequence (Q06187 whole entry): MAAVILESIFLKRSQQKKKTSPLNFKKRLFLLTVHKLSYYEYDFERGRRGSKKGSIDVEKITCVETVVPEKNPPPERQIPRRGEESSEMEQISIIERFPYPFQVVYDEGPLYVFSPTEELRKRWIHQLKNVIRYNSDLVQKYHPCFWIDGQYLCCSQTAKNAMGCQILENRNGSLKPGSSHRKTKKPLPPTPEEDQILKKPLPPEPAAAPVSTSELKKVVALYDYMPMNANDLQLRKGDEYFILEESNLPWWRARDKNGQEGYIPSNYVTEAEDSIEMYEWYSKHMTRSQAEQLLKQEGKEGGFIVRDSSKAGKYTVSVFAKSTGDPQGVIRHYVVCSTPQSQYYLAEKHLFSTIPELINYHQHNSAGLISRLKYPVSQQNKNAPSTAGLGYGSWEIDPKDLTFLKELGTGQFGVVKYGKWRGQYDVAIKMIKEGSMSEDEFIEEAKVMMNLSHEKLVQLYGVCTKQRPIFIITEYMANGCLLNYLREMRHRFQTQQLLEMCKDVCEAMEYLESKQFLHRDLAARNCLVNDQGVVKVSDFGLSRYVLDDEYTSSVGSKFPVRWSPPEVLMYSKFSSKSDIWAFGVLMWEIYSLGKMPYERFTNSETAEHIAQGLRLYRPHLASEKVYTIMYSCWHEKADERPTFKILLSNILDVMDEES
# Procedure: Kinase activity was monitored using a HTRF® KinEASE-TK kit from Cisbio (62TK0PEC). For BTK, the 1× kinase buffer was supplemented with 10 mM MnCl2, 5 mM MgCl2, 1 uM ATPγS, 1 mM TCEP and 100 fold diluted Supplementary Enzyme Buffer. BTK was purchased from Promega. […] Reaction with substrate was then initiated by adding biotinylated substrate and ATP and the reaction was allowed to proceed for 45 min. […] After 60 min of incubation, the fluorescence emission was measured at 620 nm and 665 nm. The ratio of Em 665 nm to Em 620 nm was proportional to the amount of substrate phosphorylated by the kinase.
# BTK [2] = molecular target: T1, BTK; assay: Ramos RA1 cell lysis and immunoassay, phospho-BTK (Y223) inhibition; assay type: cell-based; parameters: key: X: BTK bound and autophosphoration of BTK inhibited in cells; conditions: RAMOS cells
# Procedure: Ramos RA 1 cells (ATCC) were cultured in RPMI-1640 media (Wisent) supplemented with 10% heat-inactivated FBS and 1% penicillin/streptomycin. Cells were seeded in 6-well plates at 1.71×10^6 cells/well and incubated at 37° C., 5% CO2 for 16 hours. Cells were treated with compound at the indicated concentrations or DMSO alone and incubated at 37° C., 5% CO2 for 24 hours. Cell suspensions were centrifugated at 1,400-1,600 RPM for 5 minutes at room temperature and supernatants were discarded. Cell pellets were resuspended with 1× RIPA buffer (Millipore) and incubated on ice for 15 minutes. Protein lysates were extracted by centrifugating at 20,000 RPM for 20 minutes at 4° C. Proteins were separated and total BTK protein levels were quantified by Simple Western Immunoassay (ProteinSimple) using the 12-230 kDa Jess Separation Module according to the manufacturer's protocol, using a protein concentration of 0.25 μg/μl and antibodies targeting BTK (clone #D3H5, Cell Signalling) and β-Actin (clone #AC-15, Santa Cruz) diluted to 1:400 and 1:10, respectively, where the latter was used as a loading control. An equal ratio of rabbit and mouse HRP-conjugated secondary antibodies was used for detection. BTK protein levels were quantified relative to S-Actin loading levels and subsequently normalized to the DMSO control. Phosphorylated BTK levels were quantified using the Protein Normalization Assay Module for Jess (ProteinSimple) according to the manufacturer's protocol, using a protein concentration of 1.5 μg/μl and an antibody targeting pBTK (Y223) (Cell Signalling) diluted to 1:50. Phosphorylated BTK levels were quantified relative to the Protein Normalization Reagent and subsequently normalized to the DMSO control.
# FGFR4 = FGFR4 (Homo sapiens (Human), UniProt P22455); assay: HTRF KinEASE-TK kinase assay, FGFR4; assay type: biochemical; conditions: for IC50: dose response; for remaining activity at 1 µM: read-out: % FGFR4 Remaining activity vs DMSO (1 μM, 3 h); for remaining activity at 10 µM: read-out: % FGFR4 Remaining activity vs DMSO (10 μM, 3 h)
# FGFR4, sequence (P22455 22-802): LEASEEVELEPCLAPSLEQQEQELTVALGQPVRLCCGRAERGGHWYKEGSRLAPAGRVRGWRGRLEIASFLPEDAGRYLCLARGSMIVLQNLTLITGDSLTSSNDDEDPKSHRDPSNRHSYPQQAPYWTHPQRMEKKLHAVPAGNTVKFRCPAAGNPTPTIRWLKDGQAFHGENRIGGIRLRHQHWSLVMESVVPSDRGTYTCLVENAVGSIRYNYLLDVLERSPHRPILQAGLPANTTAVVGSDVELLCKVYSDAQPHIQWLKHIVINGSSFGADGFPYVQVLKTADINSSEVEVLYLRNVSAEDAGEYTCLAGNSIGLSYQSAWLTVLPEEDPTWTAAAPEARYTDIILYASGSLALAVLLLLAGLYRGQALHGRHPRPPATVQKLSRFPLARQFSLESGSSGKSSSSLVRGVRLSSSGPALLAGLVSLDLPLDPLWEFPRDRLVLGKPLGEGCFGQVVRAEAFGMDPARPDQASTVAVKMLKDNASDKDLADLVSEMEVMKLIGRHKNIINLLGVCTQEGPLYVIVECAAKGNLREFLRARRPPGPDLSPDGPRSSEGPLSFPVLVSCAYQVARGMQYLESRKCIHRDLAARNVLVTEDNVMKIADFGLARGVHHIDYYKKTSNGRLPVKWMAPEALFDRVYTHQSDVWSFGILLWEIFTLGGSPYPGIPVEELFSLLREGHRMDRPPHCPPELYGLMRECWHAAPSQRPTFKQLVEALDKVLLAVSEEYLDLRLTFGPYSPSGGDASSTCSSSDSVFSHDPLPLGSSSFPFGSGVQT
# Procedure: (§1) Kinase activity was monitored using a HTRF® KinEASE-TK kit from Cisbio (62TK0PEC). […] FGFR-4 was purchased from Promega. 0.333 ng/ul FGFR4 (5.12 nM) was preincubated in the absence or presence of inhibitor at room temperature for 3 hours. Reaction with substrate was then initiated by adding biotinylated substrate and ATP. […] The reaction was terminated by adding 31.25 nM SA-XL665 and 100 fold diluted europium labelled antibody (Eu-Ab), diluted in 1× detection buffer that contained EDTA. After 60 min of incubation, the fluorescence emission was measured at 620 nm and 665 nm. The ratio of Em 665 nm to Em 620 nm was proportional to the amount of substrate phosphorylated by the kinase.
# BMX = BMX (Homo sapiens (Human), UniProt P51813); assay: HTRF KinEASE-TK kinase assay, BMX; assay type: biochemical; conditions: for remaining activity at 1 µM: 1 uM compound; for remaining activity at 1 µM / remaining activity at 10 µM: 3 h preincubation; for remaining activity at 10 µM: 10 uM compound; for IC50: dose response
# BMX, sequence (P51813 whole entry): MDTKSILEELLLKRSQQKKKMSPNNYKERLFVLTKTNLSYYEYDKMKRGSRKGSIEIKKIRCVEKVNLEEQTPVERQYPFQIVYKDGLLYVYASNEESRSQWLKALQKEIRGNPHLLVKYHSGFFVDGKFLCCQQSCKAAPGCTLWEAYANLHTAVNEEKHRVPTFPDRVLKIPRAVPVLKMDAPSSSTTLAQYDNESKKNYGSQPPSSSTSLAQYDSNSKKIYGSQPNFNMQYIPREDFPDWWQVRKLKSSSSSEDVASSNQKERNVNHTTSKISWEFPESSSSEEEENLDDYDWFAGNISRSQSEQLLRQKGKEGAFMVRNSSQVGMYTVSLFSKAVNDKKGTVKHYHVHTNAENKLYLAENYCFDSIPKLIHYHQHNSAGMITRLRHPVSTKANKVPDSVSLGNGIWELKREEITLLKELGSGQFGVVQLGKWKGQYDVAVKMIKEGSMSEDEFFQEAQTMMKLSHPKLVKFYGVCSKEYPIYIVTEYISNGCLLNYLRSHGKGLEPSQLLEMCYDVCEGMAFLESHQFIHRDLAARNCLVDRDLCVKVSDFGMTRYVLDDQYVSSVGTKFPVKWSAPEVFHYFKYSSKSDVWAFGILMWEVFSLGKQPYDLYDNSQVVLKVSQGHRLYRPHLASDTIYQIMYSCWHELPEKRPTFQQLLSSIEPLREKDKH
# Procedure: as §1, with “BMX” for “FGFR-4”, “BMX (3.03” for “FGFR4 (5.12”, “The reaction” for “Reaction”, “Reaction” for “The reaction”
# JAK3 = JAK3 (Homo sapiens (Human), UniProt P52333); assay: HTRF KinEASE-TK kinase assay, JAK3; assay type: biochemical; conditions: for remaining activity at 1 µM: read-out: % JAK3 Remaining activity vs DMSO (1 μM, 3 h); for remaining activity at 10 µM: read-out: % JAK3 Remaining activity vs DMSO (10 μM, 3 h)
# JAK3, sequence (P52333 781-1124): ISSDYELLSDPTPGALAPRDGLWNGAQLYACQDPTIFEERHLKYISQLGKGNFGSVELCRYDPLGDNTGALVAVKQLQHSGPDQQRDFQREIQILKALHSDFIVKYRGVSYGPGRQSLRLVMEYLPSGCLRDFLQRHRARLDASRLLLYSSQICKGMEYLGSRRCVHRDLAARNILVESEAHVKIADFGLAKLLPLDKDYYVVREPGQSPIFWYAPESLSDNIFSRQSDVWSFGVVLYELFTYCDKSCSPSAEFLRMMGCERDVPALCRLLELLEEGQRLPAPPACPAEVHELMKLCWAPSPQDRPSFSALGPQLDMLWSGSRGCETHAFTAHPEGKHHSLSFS
# Procedure: as §1, with “JAK-3” for “FGFR-4”, “0.0133” for “0.333”, “JAK3 (0.21” for “FGFR4 (5.12”
# EGFR = EGFR (Homo sapiens (Human), UniProt P00533); assay: HTRF KinEASE-TK kinase assay, EGFR; assay type: biochemical; conditions: 3 h preincubation; for remaining activity at 1 µM: 1 μM compound, read-out: % EGFR Remaining activity vs DMSO (1 μM, 3 h); for remaining activity at 10 µM: 10 μM compound, read-out: % EGFR Remaining activity vs DMSO (10 μM, 3 h)
# EGFR, sequence (P00533 25-1210): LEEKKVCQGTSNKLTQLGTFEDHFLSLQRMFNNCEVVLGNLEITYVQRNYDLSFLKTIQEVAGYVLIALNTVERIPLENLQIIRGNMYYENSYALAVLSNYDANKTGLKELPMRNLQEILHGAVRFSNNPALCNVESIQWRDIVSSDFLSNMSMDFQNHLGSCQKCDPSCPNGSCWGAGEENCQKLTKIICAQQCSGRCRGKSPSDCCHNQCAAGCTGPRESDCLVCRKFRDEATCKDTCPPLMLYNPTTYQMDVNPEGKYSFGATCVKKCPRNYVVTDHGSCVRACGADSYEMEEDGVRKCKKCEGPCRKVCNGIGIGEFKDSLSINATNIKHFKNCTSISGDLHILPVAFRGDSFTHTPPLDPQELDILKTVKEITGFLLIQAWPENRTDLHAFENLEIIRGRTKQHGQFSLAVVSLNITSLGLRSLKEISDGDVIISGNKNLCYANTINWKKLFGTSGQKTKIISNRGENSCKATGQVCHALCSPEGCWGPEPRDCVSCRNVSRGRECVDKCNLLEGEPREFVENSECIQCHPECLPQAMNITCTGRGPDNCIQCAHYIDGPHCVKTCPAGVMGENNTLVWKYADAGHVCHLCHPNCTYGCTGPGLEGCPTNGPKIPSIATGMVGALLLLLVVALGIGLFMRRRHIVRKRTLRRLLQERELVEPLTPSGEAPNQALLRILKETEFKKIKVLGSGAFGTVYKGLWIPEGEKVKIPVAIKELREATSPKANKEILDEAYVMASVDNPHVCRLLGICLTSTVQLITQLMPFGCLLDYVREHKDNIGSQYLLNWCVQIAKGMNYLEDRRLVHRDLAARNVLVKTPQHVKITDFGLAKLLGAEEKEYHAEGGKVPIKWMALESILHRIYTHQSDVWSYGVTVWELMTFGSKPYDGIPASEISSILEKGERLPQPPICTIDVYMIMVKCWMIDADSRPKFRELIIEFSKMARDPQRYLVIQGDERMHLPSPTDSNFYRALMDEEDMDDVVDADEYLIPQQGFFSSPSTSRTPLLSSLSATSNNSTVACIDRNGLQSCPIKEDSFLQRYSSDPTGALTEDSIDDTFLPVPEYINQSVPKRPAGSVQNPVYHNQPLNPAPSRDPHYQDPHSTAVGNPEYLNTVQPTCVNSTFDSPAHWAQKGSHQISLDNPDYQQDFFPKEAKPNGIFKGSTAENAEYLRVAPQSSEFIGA
# Procedure: Kinase activity was monitored using a HTRF® KinEASE-TK kit from Cisbio (62TK0PEC). The buffer used was 1× kinase buffer supplemented with 2 mM MnCl2, 5 mM MgCl2, 1 mM TCEP and 100× diluted Supplementary Enzyme Buffer. EGFR was purchased from Promega. […] Reaction with substrate was then initiated by adding biotinylated substrate and ATP. […] After 60 min of incubation, the fluorescence emission was measured at 620 nm and 665 nm. The ratio of Em 665 nm to Em 620 nm was proportional to the amount of substrate phosphorylated by the kinase.
# For initial screening, enzymes were pre incubated with compounds at 2 different concentrations (1 and 10 uM final) and 0.5% DMSO.
# RIPK2 = RIPK2 (Homo sapiens (Human), UniProt O43353); assay: In vitro RIPK2 inhibition; assay type: biochemical; conditions: for remaining activity at 1 µM: read-out: % RIPK2 Remaining activity vs DMSO (1 μM, 3 h); for remaining activity at 10 µM: read-out: % RIPK2 Remaining activity vs DMSO (10 μM, 3 h)
# RIPK2, sequence (O43353 whole entry, species assumed): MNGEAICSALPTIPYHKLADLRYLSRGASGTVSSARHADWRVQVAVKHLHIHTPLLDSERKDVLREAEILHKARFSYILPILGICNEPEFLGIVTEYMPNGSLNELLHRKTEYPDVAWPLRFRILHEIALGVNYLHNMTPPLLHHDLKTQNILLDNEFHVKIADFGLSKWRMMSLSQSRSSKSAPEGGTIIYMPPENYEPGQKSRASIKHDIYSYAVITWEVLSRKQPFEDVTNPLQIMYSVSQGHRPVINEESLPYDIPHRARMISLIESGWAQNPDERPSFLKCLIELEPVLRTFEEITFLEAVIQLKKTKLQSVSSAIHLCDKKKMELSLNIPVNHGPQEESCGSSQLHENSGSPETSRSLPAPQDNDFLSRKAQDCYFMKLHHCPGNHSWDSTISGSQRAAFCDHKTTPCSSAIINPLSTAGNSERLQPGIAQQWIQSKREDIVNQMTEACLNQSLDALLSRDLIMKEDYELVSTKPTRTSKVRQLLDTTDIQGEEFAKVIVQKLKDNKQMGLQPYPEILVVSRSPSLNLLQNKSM
SMILES,remaining activity at 1 µM (BTK [1]),remaining activity at 10 µM (BTK [1]),"pBTK inhibition (RAMOS, 24 h) (BTK [2]; compound concentration 1 μM)",IC50 (FGFR4),remaining activity at 1 µM (FGFR4),remaining activity at 10 µM (FGFR4),remaining activity at 1 µM (BMX),remaining activity at 10 µM (BMX),IC50 (BMX),remaining activity at 1 µM (JAK3),remaining activity at 10 µM (JAK3),remaining activity at 1 µM (EGFR),remaining activity at 10 µM (EGFR),remaining activity at 1 µM (RIPK2),remaining activity at 10 µM (RIPK2),"pBTK inhibition (RAMOS, 24 h) (BTK [2]; compound concentration 10 μM)"
"Nc1ncnc2c1c(-c1ccc(Oc3ccccc3)cc1)nn2C1CCN(S(=O)(=O)c2c(F)c(F)c(F)c(F)c2OC(F)F)C1 (stereo in doubt) [Compound I-26, (R)-1-(1-((2-(difluoromethoxy)-3,4,5,6-tetrafluorophenyl)sulfonyl)pyrrolidin-3-yl)-3-(4-phenoxyphenyl)-1H-pyrazolo[3,4-d]pyrimidin-4-amine]",< 50%,< 50%,X,< 1000 nM,< 50%,< 50%,< 50%,< 50%,< 1000 nM,50 to 90%,50 to 90%,> 90%,50 to 90%,–,–,–
"Nc1ncnc2c1c(-c1ccc(Oc3ccccc3)cc1)nn2CCNS(=O)(=O)c1c(F)c(F)c(F)c(F)c1C(F)F [Compound I-22, N-(2-(4-amino-3-(4-phenoxyphenyl)-1H-pyrazolo[3,4-d]pyrimidin-1-yl)ethyl)-2-(difluoromethyl)-3,4,5,6-tetrafluorobenzenesulfonamide]",< 50%,< 50%,X,–,> 90%,< 50%,< 50%,< 50%,–,> 90%,50 to 90%,> 90%,< 50%,–,–,–
"COc1c(F)c(F)c(F)c(F)c1S(=O)(=O)n1nc(-c2ccc(Oc3ccccc3)cc2)c2c(N)ncnc21 [Compound I-23, 3-(4-phenoxyphenyl)-1-((2,3,4,5-tetrafluoro-6-methoxyphenyl)sulfonyl)-1H-pyrazolo[3,4-d]pyrimidin-4-amine]",< 50%,< 50%,X,–,> 90%,> 90%,< 50%,< 50%,–,> 90%,50 to 90%,–,–,–,–,–
"Nc1ncnc2c1c(-c1ccc(Oc3ccccc3)cc1)nn2CCNS(=O)(=O)c1c(F)c(F)c(F)c(F)c1OCF [Compound I-25, N-(2-(4-amino-3-(4-phenoxyphenyl)-1H-pyrazolo[3,4-d]pyrimidin-1-yl)ethyl)-2,3,4,5-tetrafluoro-6-(fluoromethoxy)benzenesulfonamide]",< 50%,< 50%,X,–,50 to 90%,< 50%,< 50%,< 50%,< 1000 nM,> 90%,50 to 90%,> 90%,> 90%,–,–,–

# Now from value to molecule:
remaining activity at 1 µM (BTK [1]),remaining activity at 10 µM (BTK [1]),"pBTK inhibition (RAMOS, 24 h) (BTK [2]; compound concentration 1 μM)",IC50 (FGFR4),remaining activity at 1 µM (FGFR4),remaining activity at 10 µM (FGFR4),remaining activity at 1 µM (BMX),remaining activity at 10 µM (BMX),IC50 (BMX),remaining activity at 1 µM (JAK3),remaining activity at 10 µM (JAK3),remaining activity at 1 µM (EGFR),remaining activity at 10 µM (EGFR),remaining activity at 1 µM (RIPK2),remaining activity at 10 µM (RIPK2),"pBTK inhibition (RAMOS, 24 h) (BTK [2]; compound concentration 10 μM)",SMILES
< 50%,< 50%,–,< 1000 nM,< 50%,< 50%,50 to 90%,< 50%,–,> 90%,50 to 90%,> 90%,50 to 90%,50 to 90%,> 90%,–,"CN(CCn1nc(-c2ccc(Oc3ccccc3)cc2)c2c(N)ncnc21)C(=O)c1c(F)c(F)c(F)c(F)c1S(=O)(=O)N(C)C [Compound I-30, N-(2-(4-amino-3-(4-phenoxyphenyl)-1H-pyrazolo[3,4-d]pyrimidin-1-yl)ethyl)-2-(N,N-dimethylsulfamoyl)-3,4,5,6-tetrafluoro-N-methylbenzamide]"
< 50%,< 50%,–,–,> 90%,< 50%,< 50%,< 50%,–,< 50%,< 50%,> 90%,< 50%,< 50%,50 to 90%,–,"CS(=O)(=O)c1c(F)c(F)c(F)c(F)c1C(=O)NCCNc1ncnc2[nH]ccc12 [Compound I-45, N-(2-((7H-pyrrolo[2,3-d]pyrimidin-4-yl)amino)ethyl)-2,3,4,5-tetrafluoro-6-(methylsulfonyl)benzamide]"
50 to 90%,< 50%,–,–,> 90%,< 50%,< 50%,< 50%,–,> 90%,50 to 90%,> 90%,> 90%,–,–,X,"COCCOc1ccc(Nc2ncc(F)c(Nc3cccc(NS(=O)(=O)c4c(F)c(F)c(F)c(F)c4C(F)F)c3)n2)cc1 [Compound I-51, 2-(difluoromethyl)-3,4,5,6-tetrafluoro-N-(3-((5-fluoro-2-((4-(2-methoxyethoxy)phenyl)amino)pyrimidin-4-yl)amino)phenyl)benzenesulfonamide]"
